Source: patent US12559506B2, “Indazole based compounds and associated methods of use” (Arvinas Operations, Inc., priority 2021, dated 2026)
Where two headings read alike, the source gives them in different places.

Target: T1, LRRK2 (endogenous, HiBit tagged) (Homo sapiens, UniProt Q5S007)
T1 construct: endogenous in cells; host or cells: HEK293 cells with HiBit knock-in at the endogenous LRRK2 locus, stably expressing firefly luciferase
Experiment: Endogenous LRRK2 degradation assay, endogenous gene C-terminally HiBit-tagged in HEK293 cells (Nano-Glo Dual Luciferase)
Format: cell-based
Method in brief: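 LRRK2-HiBit quantified via Nano-Glo Dual Luciferase in HEK293 knock-in cells co-expressing firefly luciferase, after 24 h exposure to compound (1 μM final top, 1:3, 11 points). Values normalised to DMSO median per plate and curve-fitted; Alamar Blue viability run alongside.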

[1] = endogenous HiBit-tagged LRRK2 in HEK293 cells, 24 hours treatment, read-out: Endogenous WT DC50
[2] = endogenous HiBit-tagged LRRK2 in HEK293 cells, 24 hours treatment, read-out: Endogenous WT Dmax
[3] = endogenous HiBit-tagged LRRK2 in HEK293 cells, 24 hours treatment, read-out: **Endogenous WT Dmax (%)
[4] = endogenous HiBit-tagged LRRK2 in HEK293 cells, 24 hours treatment, read-out: *Endogenous WT DC50

T1 sequence (Q5S007 whole entry): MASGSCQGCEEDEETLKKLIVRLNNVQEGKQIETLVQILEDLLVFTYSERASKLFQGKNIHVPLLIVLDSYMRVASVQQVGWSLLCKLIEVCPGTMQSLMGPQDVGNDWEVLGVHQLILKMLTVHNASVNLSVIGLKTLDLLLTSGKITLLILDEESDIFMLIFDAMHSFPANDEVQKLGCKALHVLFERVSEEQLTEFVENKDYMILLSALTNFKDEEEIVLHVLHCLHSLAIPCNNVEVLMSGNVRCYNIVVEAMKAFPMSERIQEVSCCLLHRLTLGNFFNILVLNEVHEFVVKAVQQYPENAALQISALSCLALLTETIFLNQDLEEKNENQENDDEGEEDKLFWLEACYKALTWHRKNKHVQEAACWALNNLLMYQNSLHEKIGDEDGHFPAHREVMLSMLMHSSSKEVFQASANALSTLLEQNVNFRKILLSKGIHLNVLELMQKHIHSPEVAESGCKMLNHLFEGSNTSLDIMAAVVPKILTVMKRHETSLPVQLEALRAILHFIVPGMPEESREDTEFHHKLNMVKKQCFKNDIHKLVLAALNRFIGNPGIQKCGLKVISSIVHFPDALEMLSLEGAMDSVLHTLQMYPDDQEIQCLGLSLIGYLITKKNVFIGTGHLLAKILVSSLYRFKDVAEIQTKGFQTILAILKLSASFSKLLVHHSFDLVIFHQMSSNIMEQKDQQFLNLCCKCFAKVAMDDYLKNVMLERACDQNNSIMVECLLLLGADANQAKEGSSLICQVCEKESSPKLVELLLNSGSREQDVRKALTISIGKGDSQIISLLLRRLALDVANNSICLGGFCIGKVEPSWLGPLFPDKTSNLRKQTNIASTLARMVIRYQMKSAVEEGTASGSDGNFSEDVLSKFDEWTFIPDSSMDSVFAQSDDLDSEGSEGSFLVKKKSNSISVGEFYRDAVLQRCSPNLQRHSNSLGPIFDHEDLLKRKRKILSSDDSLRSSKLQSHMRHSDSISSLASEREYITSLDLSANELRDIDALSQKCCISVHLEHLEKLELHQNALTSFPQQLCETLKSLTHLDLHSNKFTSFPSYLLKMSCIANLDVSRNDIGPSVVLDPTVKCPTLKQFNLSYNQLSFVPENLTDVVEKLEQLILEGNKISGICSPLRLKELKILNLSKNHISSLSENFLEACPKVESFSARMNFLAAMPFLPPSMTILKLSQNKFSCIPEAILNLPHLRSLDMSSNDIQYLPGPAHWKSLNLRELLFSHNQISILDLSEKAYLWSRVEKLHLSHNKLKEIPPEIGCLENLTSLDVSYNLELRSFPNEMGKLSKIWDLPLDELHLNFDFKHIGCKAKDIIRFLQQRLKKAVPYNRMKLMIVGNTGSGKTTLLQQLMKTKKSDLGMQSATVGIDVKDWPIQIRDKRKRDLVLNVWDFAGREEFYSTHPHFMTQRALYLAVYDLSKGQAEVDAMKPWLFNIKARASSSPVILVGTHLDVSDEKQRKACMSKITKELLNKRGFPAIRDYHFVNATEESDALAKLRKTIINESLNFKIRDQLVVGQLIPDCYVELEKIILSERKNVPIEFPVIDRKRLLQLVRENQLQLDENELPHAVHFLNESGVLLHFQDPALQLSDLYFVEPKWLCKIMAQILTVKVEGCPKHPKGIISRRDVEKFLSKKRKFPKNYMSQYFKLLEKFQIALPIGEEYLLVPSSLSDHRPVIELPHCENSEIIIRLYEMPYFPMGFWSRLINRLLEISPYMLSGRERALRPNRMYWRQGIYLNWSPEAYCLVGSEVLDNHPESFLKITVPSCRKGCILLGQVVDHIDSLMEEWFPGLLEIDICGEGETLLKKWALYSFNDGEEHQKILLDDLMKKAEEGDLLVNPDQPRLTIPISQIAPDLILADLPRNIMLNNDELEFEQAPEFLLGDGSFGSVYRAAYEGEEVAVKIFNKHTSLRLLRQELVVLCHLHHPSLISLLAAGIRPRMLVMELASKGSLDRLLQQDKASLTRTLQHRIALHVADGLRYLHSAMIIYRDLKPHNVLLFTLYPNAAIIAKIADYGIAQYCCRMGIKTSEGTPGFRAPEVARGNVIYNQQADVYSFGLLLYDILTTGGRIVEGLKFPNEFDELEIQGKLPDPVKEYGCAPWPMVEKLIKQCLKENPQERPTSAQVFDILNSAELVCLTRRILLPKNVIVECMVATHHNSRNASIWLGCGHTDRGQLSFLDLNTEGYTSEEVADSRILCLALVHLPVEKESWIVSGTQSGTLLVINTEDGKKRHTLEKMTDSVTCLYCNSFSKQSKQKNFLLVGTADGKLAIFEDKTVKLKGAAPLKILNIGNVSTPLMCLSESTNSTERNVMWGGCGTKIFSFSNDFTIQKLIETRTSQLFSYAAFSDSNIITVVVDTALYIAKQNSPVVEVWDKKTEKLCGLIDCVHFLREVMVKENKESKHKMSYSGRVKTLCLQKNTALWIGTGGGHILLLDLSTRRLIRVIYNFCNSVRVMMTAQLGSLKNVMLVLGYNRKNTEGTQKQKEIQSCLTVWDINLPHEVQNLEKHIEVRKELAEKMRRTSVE

Compound | DC50 [1] [µM] | Dmax [2] [%] | Dmax [3] [%] | DC50 [4] [µM] | also measured
COc1c(N2CCC(CN3CCN(CC4CCN(c5cc(-c6n[nH]c7ccc(OC8(C)CC8)cc67)ncn5)CC4)[C@H](C)C3)CC2)ccc2c1CN(C1CCC(=O)NC1=O)C2=O (stereo partly drawn) [Compound 255, 3-[4-methoxy-5-(4-{[(3R)-3-methyl-4-[(1-{6-[5-(1-methylcyclopropoxy)-1H-indazol-3-yl]pyrimidin-4-yl}piperidin-4-yl)methyl]piperazin-1-yl]methyl}piperidin-1-yl)-1-oxo-2,3-dihydro-1H-isoindol-2-yl]piperidine-2,6-dione] | < 0.01 | 50 to 70 | – | – | –
Cc1cc(-c2n[nH]c3ccc(OC4(C)CC4)nc23)cc(N2CCC(O[C@H]3CC[C@H](CN4CCN(c5ccc6c(c5F)CN(C5CCC(=O)NC5=O)C6=O)CC4)CC3)CC2)n1 (stereo partly shown) [Compound 371, 3-[4-fluoro-1-oxo-5-(4-{[(1r,4r)-4-[(1-{6-methyl-4-[5-(1-methylcyclopropoxy)-1H-pyrazolo[4,3-b]pyridin-3-yl]pyridin-2-yl}piperidin-4-yl)oxy]cyclohexyl]methyl}piperazin-1-yl)-2,3-dihydro-1H-isoindol-2-yl]piperidine-2,6-dione] | < 0.01 | 50 to 70 | – | – | –
CC1(Oc2ccc3[nH]nc(-c4cc(N5CC[C@@H](CN6CCN(CC7CCN(c8ccc9c(c8F)CN(C8CCC(=O)NC8=O)C9=O)CC7)CC6)C5)ncn4)c3c2)CC1 (stereo partly drawn) [Compound 327, 3-(4-fluoro-5-{4-[(4-{[(3S)-1-{6-[5-(1-methylcyclopropoxy)-1H-indazol-3-yl]pyrimidin-4-yl}pyrrolidin-3-yl]methyl}piperazin-1-yl)methyl]piperidin-1-yl}-1-oxo-2,3-dihydro-1H-isoindol-2-yl)piperidine-2,6-dione] | – | – | 50 to 70 | < 0.01 | –
COc1c(N2CCN(C[C@H]3CC[C@H](CN4CCN(c5cc(-c6n[nH]c7ccc(OC8(C)CC8)cc67)ncn5)CC4)CC3)CC2)ccc2c1CN(C1CCC(=O)NC1=O)C2=O (stereo partly shown) [Compound 265, 3-[4-methoxy-1-oxo-5-(4-{[(1r,4r)-4-[(4-{6-[5-(1-methylcyclopropoxy)-1H-indazol-3-yl]pyrimidin-4-yl}piperazin-1-yl)methyl]cyclohexyl]methyl}piperazin-1-yl)-2,3-dihydro-1H-isoindol-2-yl]piperidine-2,6-dione] | – | – | ≥ 70 | < 0.01 | –
COc1c(N2CCC(CN3CCN(CC4CCN(c5cc(-c6n[nH]c7cc(F)c(OC8(C)CC8)cc67)ncn5)CC4)CC3(C)C)CC2)ccc2c1CN(C1CCC(=O)NC1=O)C2=O (stereo not shown) [Compound 279, 3-{5-[4-({4-[(1-{6-[6-fluoro-5-(1-methylcyclopropoxy)-1H-indazol-3-yl]pyrimidin-4-yl}piperidin-4-yl)methyl]-2,2-dimethylpiperazin-1-yl}methyl)piperidin-1-yl]-4-methoxy-1-oxo-2,3-dihydro-1H-isoindol-2-yl}piperidine-2,6-dione] | – | – | ≥ 70 | < 0.01 | –
COc1c(N2CCC(O[C@H]3CC[C@H](CN4CCN(c5cc(-c6n[nH]c7ccc(OC8(C)CC8)cc67)ncn5)C[C@@H]4C)CC3)CC2)ccc2c1CN(C1CCC(=O)NC1=O)C2=O (stereo partly drawn) [Compound 366, 3-[4-methoxy-1-oxo-5-(4-{[(1r,4r)-4-{[(2S)-2-methyl-4-{6-[5-(1-methylcyclopropoxy)-1H-indazol-3-yl]pyrimidin-4-yl}piperazin-1-yl]methyl}cyclohexyl]oxy}piperidin-1-yl)-2,3-dihydro-1H-isoindol-2-yl]piperidine-2,6-dione] | < 0.01 | 50 to 70 | – | – | –
CC1(Oc2ccc3[nH]nc(-c4cc(N5CCC(CN6CCN(CC7CCN(c8ccc9c(c8F)CN(C8CCC(=O)NC8=O)C9=O)CC7)CC6)CC5)ncn4)c3c2)CC1 (stereo not shown) [Compound 181, 3-[4-fluoro-5-[4-[[4-[[1-[6-[5-(1-methylcyclopropoxy)-1H-indazol-3-yl]pyrimidin-4-yl]-4-piperidyl]methyl]piperazin-1-yl]methyl]-1-piperidyl]-1-oxo-isoindolin-2-yl]piperidine-2,6-dione] | – | – | – | – | Dmax (endogenous HiBit-tagged LRRK2, HEK293 cells, 24 hours, read-out: **Endogenous WT Dmax (%)): ≥ 70%; DC50 (endogenous HiBit-tagged LRRK2, HEK293 cells, 24 hours, read-out: *Endogenous WT DC50): < 0.01 µM
COc1c(N2CC3(CCN([C@H]4C[C@H](OC5CCN(c6cc(-c7[nH]nc8ccc(OC9(C)CC9)cc78)ncn6)CC5)C4)CC3)C2)ccc2c1CN(C1CCC(=O)NC1=O)C2=O (stereo partly shown) [Compound 344, 3-(4-methoxy-1-oxo-5-{7-[(1r,3r)-3-[(1-{6-[5-(1-methylcyclopropoxy)-2H-indazol-3-yl]pyrimidin-4-yl}piperidin-4-yl)oxy]cyclobutyl]-2,7-diazaspiro[3.5]nonan-2-yl}-2,3-dihydro-1H-isoindol-2-yl)piperidine-2,6-dione] | – | – | 50 to 70 | < 0.01 | –
CC1(Oc2ccc3n[nH]c(-c4cc(N5CCC(COC6CCN(C(=O)C7CCN(c8ccc9c(c8)C(=O)N(C8CCC(=O)NC8=O)C9=O)CC7)CC6)CC5)ncn4)c3c2)CC1 (stereo not shown) [Compound 62, 2-(2,6-dioxo-3-piperidyl)-5-[4-[4-[[1-[6-[5-(1-methylcyclopropoxy)-2H-indazol-3-yl]pyrimidin-4-yl]-4-piperidyl]methoxy]piperidine-1-carbonyl]-1-piperidyl]isoindoline-1,3-dione] | – | – | – | – | Dmax (endogenous HiBit-tagged LRRK2 in HEK293 cells, 24 hours, read-out: **Endogenous WT Dmax (%)): ≥ 70%; DC50 (endogenous HiBit-tagged LRRK2 in HEK293 cells, 24 hours, read-out: *Endogenous WT DC50): < 0.01 µM
CC1(Oc2ccc3[nH]nc(-c4cc(N5CCN(CCN6CCC7(CN(c8ccc9c(c8F)CN(C8CCC(=O)NC8=O)C9=O)C7)C(F)(F)C6)CC5)ncn4)c3c2)CC1 (stereo not shown) [Compound 336, 3-(5-{5,5-difluoro-7-[2-(4-{6-[5-(1-methylcyclopropoxy)-1H-indazol-3-yl]pyrimidin-4-yl}piperazin-1-yl)ethyl]-2,7-diazaspiro[3.5]nonan-2-yl}-4-fluoro-1-oxo-2,3-dihydro-1H-isoindol-2-yl)piperidine-2,6-dione] | – | – | 50 to 70 | < 0.01 | –
COc1c(N2CCN(C[C@H]3CC[C@H](OC4CCN(c5cc(-c6n[nH]c7cnc(OC8(C)CC8)cc67)ncn5)CC4)CC3)CC2)ccc2c1CN(C1CCC(=O)NC1=O)C2=O (stereo partly shown) [Compound 268, 3-[4-methoxy-1-oxo-5-(4-{[(1r,4r)-4-[(1-{6-[5-(1-methylcyclopropoxy)-1H-pyrazolo[3,4-c]pyridin-3-yl]pyrimidin-4-yl}piperidin-4-yl)oxy]cyclohexyl]methyl}piperazin-1-yl)-2,3-dihydro-1H-isoindol-2-yl]piperidine-2,6-dione] | – | – | 50 to 70 | < 0.01 | –
COc1c(N2CCC(CN3CCN(CC4CCN(c5cc(-c6n[nH]c7cnc(OC8(C)CC8)cc67)ncn5)CC4)C(C)(C)C3)CC2)ccc2c1CN(C1CCC(=O)NC1=O)C2=O (stereo not shown) [Compound 338, 3-{5-[4-({3,3-dimethyl-4-[(1-{6-[5-(1-methylcyclopropoxy)-1H-pyrazolo[3,4-c]pyridin-3-yl]pyrimidin-4-yl}piperidin-4-yl)methyl]piperazin-1-yl}methyl)piperidin-1-yl]-4-methoxy-1-oxo-2,3-dihydro-1H-isoindol-2-yl}piperidine-2,6-dione] | – | – | 50 to 70 | < 0.01 | –
CC1(Oc2ccc3n[nH]c(-c4cc(N5CCC(O[C@H]6C[C@H](N7CC8(CCN(c9ccc%10c(c9F)CN(C9CCC(=O)NC9=O)C%10=O)CC8)C7)C6)CC5)ncn4)c3c2)CC1 (stereo partly shown) [Compound 335, 3-(4-fluoro-1-oxo-5-{2-[(1r,3r)-3-[(1-{6-[5-(1-methylcyclopropoxy)-2H-indazol-3-yl]pyrimidin-4-yl}piperidin-4-yl)oxy]cyclobutyl]-2,7-diazaspiro[3.5]nonan-7-yl}-2,3-dihydro-1H-isoindol-2-yl)piperidine-2,6-dione] | – | – | 50 to 70 | < 0.01 | –
CC1(Oc2ccc3[nH]nc(-c4cc(N5CCC(CN6CCN(CC7CCN(c8ccc9c(c8)C(=O)N(C8CCC(=O)NC8=O)C9)CC7)CC6)CC5)ncn4)c3c2)CC1 (stereo not shown) [Compound 241, 3-[6-[4-[[4-[[1-[6-[5-(1-methylcyclopropoxy)-1H-indazol-3-yl]pyrimidin-4-yl]-4-piperidyl]methyl]piperazin-1-yl]methyl]-1-piperidyl]-1-oxo-isoindolin-2-yl]piperidine-2,6-dione] | < 0.01 | 50 to 70 | – | – | –
CC1(Oc2ccc3n[nH]c(-c4cc(N5CCN(C[C@H]6C[C@H](CN7CCN(c8ccc9c(c8F)CN(C8CCC(=O)NC8=O)C9=O)CC7)C6)CC5)ncn4)c3c2)CC1 (stereo partly shown) [Compound 334, 3-[4-fluoro-1-oxo-5-(4-{[(1r,3r)-3-[(4-{6-[5-(1-methylcyclopropoxy)-2H-indazol-3-yl]pyrimidin-4-yl}piperazin-1-yl)methyl]cyclobutyl]methyl}piperazin-1-yl)-2,3-dihydro-1H-isoindol-2-yl]piperidine-2,6-dione] | – | – | 50 to 70 | < 0.01 | –
CC1(Oc2cc3c(-c4cc(N5CCC(O[C@H]6CC[C@H](OC7CCN(c8ccc9c(c8F)CN(C8CCC(=O)NC8=O)C9=O)CC7)CC6)CC5)ncn4)n[nH]c3cn2)CC1 (stereo partly shown) [Compound 210, 3-[4-fluoro-5-[4-[4-[[1-[6-[5-(1-methylcyclopropoxy)-1H-pyrazolo[3,4-c]pyridin-3-yl]pyrimidin-4-yl]-4-piperidyl]oxy]cyclohexoxy]-1-piperidyl]-1-oxo-isoindolin-2-yl]piperidine-2,6-dione] | < 0.01 | ≥ 70 | – | – | –
CC1(Oc2ccc3n[nH]c(-c4cc(N5CCN(C[C@H]6CC[C@H](OC7CCN(c8cc9c(cc8F)C(=O)N(C8CCC(=O)NC8=O)C9)CC7)CC6)CC5)ncn4)c3c2)CC1 (stereo partly shown) [Compound 235, 3-[6-fluoro-5-[4-[4-[[4-[6-[5-(1-methylcyclopropoxy)-2H-indazol-3-yl]pyrimidin-4-yl]piperazin-1-yl]methyl]cyclohexoxy]-1-piperidyl]-1-oxo-isoindolin-2-yl]piperidine-2,6-dione] | < 0.01 | 50 to 70 | – | – | –
